Read-outs that look alike come from different tables or passages of the source.
Assays:
[1] = test system: IL-6; assay: IL-6 secretion assay in human PBMCs (LPS-stimulated, ELISA); format: cell-based; conditions: PBMC, LPS 100 ng/mL 6 hr, read-out: IL6 inhibitory activity IC50
Procedure: (§1) Fetal bovine serum (FBS) was obtained from ThermoFisher (Cat #16000044). • Other reagents: 96well TC plates were obtained from ThermoFisher (Cat #07-2000-90). LPS was obtained from Sigma (Cat #L3024).
(§2) IL-6 was assessed using a standard ELISA protocol. Cryopreserved PBMCs were thawed in a water bath and transferred to 50 mL polypropylene tubes. The cells were washed two times with 25 mL of RPMI medium supplemented with 5% of heat-inactivated FBS and re-suspended at a density of 4.5^10^6 cells/mL. The cells were plated into 96 well TC late (100 uL/well). Serially diluted compound was added to the cells in duplicate wells for each concentration. Control wells received DMSO only (0.3% final). The cells were pre-incubated with compound for 1 hr. After pre-incubation, the cells were stimulated by LPS (100 ng/mL) for 6 hr. Control samples with and without LPS in the absence of compound were assembled in each test plate. IL-6 was detected in media supernatants by using a sandwich anti-IL-6 ELISA kit (BD Biosciences) according to protocol provided by the manufacturer. ELISA readout (optical density at 450 nm) is commensurable with the amount of IL-6 produced by the cells. Assay window was determined in each experiment by comparing average OD450 values in stimulated and un-stimulated samples in the absence of compound. ELISA calibration was performed in each detection plate using serially diluted recombinant human IL-6, to ensure that OD450 values for all test samples were within linear range of detection.%-Inhibition by compound was calculated using following equation:
(§3) [formula] • where OD450100% is optical density in control samples stimulated with LPS without compound, OD4500% is optical density in unstimulated control samples, and OD450compound is optical density in a sample stimulated with LPS in the presence of compound.
(§4) The calculated %-Inh values were plotted against compound concentration. To determine IC50 values, dose-response curves were fitted by a 4-parameter sigmoid inhibition model using XLFit® software (IDBS).

[2] = test system: TNFα; assay: TNFa secretion assay in human PBMCs (LPS-stimulated, ELISA); format: cell-based; conditions: PBMC, LPS 100 ng/mL 6 hr, read-out: TNF inhibitory activity IC50
Procedure: as §1
as §2, with “TNF-alpha was” for “IL-6 was”, “plate. TNFa” for “plate. IL-6”, “sandwich anti-TNFα” for “sandwich anti-IL-6”, “of TNFα” for “of IL-6”, “human TNFα,” for “human IL-6,”
as §3, §4

[3] = target: T1, Recombinant human ALOX15 (Arachidonate 15-Lipoxygenase) (Homo sapiens, UniProt P16050); assay: Biochemical LOX-15 assay
T1 construct: full length encompassing amino acids 2-662(end); FLAG (N); purchased BPS Biosciences 50220
T1 sequence (P16050 2-662): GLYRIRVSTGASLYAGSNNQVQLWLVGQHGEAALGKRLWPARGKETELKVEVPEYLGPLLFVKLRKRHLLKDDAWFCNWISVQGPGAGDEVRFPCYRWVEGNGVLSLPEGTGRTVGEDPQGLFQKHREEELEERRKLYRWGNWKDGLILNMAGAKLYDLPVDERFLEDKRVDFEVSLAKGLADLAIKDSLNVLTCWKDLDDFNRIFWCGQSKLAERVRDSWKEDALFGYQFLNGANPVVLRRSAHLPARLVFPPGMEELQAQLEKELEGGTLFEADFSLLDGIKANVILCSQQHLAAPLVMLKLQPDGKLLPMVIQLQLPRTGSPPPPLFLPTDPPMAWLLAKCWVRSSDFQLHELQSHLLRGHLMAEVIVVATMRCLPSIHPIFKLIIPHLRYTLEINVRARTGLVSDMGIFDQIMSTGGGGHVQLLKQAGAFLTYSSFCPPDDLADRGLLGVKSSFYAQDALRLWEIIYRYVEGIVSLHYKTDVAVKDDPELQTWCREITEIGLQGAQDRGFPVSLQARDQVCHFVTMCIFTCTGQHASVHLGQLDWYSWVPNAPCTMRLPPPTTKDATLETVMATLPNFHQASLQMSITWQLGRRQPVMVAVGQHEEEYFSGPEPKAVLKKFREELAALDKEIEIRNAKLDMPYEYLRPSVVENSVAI
Description: • Recombinant human ALOX15 (Arachidonate 15-Lipoxygenase), full length encompassing amino acids 2-662(end). In this construct the N-terminal end of ALOX15 is fused with a FLAG tag was obtained from BPS Biosciences (Cat #50220). • Dihydrorhodamine 123, DHR, was obtained from Sigma (Cat #1054) • Arachidonic acid, AA, was obtained from Sigma (Cat #A3611) • Other reagents: black 384 well assay plates were obtained from Corning (Cat #3820). • Equipment: Synergy Neo2 Multi-mode plate reader (Biotek), Labcyte 550 acoustic dispenser (Labcyte), Biomek FX robotic dispenser (Beckman Coulter), Sorvall Legend RT centrifuge (Kendro).
The LOX-15 assay was performed in assay buffer comprising: 50 mM Tris (pH 7.5),), 5 uM DHR, 50 uM AA, and 50 nM recombinant enzyme. Serially diluted compounds were prepared in DMSO in Echo qualified 384 well plates. An assay buffer was then prepared without supplemented 10 uM DHRA. 10 uL of the supplemented buffer was dispensed into control (no enzyme) wells in the black 384well assay plate. Next, a 2× enzyme solution was prepared, comprising 100 nM LOX-15 enzyme in the supplemented assay buffer. 10 uL of the 2× enzyme solution was then dispensed into test wells in the black 384well assay plate. Serially diluted compounds were added to the assay plate by acoustic dispensing (Labcyte 550). Control wells received DMSO only.
Next, the 2× substrate was prepared to comprise 100 uM arachidonic acid in the assay buffer. 10 uL of the 2× substrate was then added to all wells in the assay plate. The plate was incubated for 3 hours. The plate was read on Synergy Neo2 in fluorescence mode: excitation 485 nm, emission 530 nm. % inhibition and the resulting IC50 was calculated for the compound using the following equation:
[formula] • where RFU100% is fluorescence in control samples without compound, RFU0% is fluorescence in control samples without LOX-15, and RFUcompound fluorescence in a sample with compound.
as §4

[4] = 50 nM recombinant enzyme, 50 uM AA, read-out: 15-Lox inhibitory activity IC50

| Structure (SMILES) | IC50 [1] | IC50 [2] | IC50 [3, 4] | IC50 [3] |
| --- | --- | --- | --- | --- |
| CCCCCC1=C(NCCC)C(=O)C2=C(OC(C)(CCC=C(C)C)C=C2)C1=O (stereo not drawn) [Formula XXV] | 9.3 µM | 9 µM | 5.7 µM | – |
| CC(C)=CCCC1(C)C=CC2=C(O1)C(=O)c1ccccc1C2=O (stereo not drawn) [Formula XXVII] | > 10 µM | > 10 µM | – | > 10 µM |
| CCCCCc1cc(OC)c2c(c1OC)OC(C)(CCC=C(C)C)C=C2 (stereo not drawn) [Formula XXIV] | 14.4 µM | 10.6 µM | > 10 µM | – |
| CCCCCc1cc(OC(C)=O)c2c(c1OC(C)=O)OC(C)(CCC=C(C)C)C=C2 (stereo not drawn) [Formula XXIII] | 8.7 µM | 9.95 µM | > 10 µM | – |
| CCCCCC1=CC(=O)C2=C(O[C@](C)(CCC=C(C)C)C=C2)C1=O [Formula XXVI] | 1.07 µM | 0.62 µM | 1.93 µM | – |
| CCCCCC1=CC(=O)C2=C(OC(C)(CCC=C(C)C)C=C2)C1=O (stereo not drawn) [Formula II] | 1.2 µM | 0.93 µM | 5.4 µM | – |
| CCCCCc1cc(O)c2c(c1O)OC(C)(CCC=C(C)C)C=C2 (stereo not drawn) [Formula XXII] | > 10 µM | 9.2 µM | 1.22 µM | – |
| CCCCCC1=C(NCC)C(=O)C2=C(OC(C)(CCC=C(C)C)C=C2)C1=O (stereo not drawn) [Formula XXVIII] | > 10 µM | > 10 µM | > 10 µM | – |

Source: patent US20250057859A1, “CANNABICHROMENEQUINONE AND ANALOGUES THEREOF, AND METHOD OF USING COMPOSITIONS THEREOF AS ANTI-INFLAMMATORY AGENTS” (Juva Life, Inc., priority 2021, published 2025)
